Laboratory results published in ChEMBL document CHEMBL6092162, “Identification of novel and potent triazoles targeting CYP51 for antifungal: Design, synthesis, and biological study” (Eur J Med Chem, 2024).
In brackets after ≈: the same amount, converted by molar mass.

Legend:
Candida albicans [1] = assay: Antifungal activity against Candida albicans GIM 2.194 assessed as inhibition of fungal growth by CLSI M27-A3 guidelines based method; format: functional
Candida albicans [2] = assay: Antibiofilm activity against fluconazole-resistant Candida albicans CPCC400616 assessed as inhibition of metabolic activity of biofilm measured after 24 hrs by XTT reduction assay; format: functional
Candida albicans [3] = assay: Antifungal activity against fluconazole-resistant Candida albicans CaR assessed as inhibition of fungal growth by CLSI M27-A3 guidelines based method; format: functional
Pichia kudriavzevii = assay: Antifungal activity against Candida krusei GIM 2.1 assessed as inhibition of fungal growth by CLSI M27-A3 guidelines based method; format: functional
Candida albicans [4] = assay: Antifungal activity against fluconazole and iodiconazole resistant Candida albicans clinical isolate 17# assessed as inhibition of fungal growth by CLSI M27-A3 guidelines based method; format: functional
Candida albicans [5] = assay: Antibiofilm activity against fluconazole-resistant Candida albicans CPCC400616 assessed as inhibition of metabolic activity of biofilm measured after 48 hrs by XTT reduction assay; format: functional
Candida albicans [6] = assay: Antifungal activity against fluconazole-resistant Candida albicans clinical isolate 103 assessed as inhibition of fungal growth by CLSI M27-A3 guidelines based method; format: functional
Candida albicans [7] = assay: Antifungal activity against fluconazole-resistant Candida albicans clinical isolate 901 assessed as inhibition of fungal growth by CLSI M27-A3 guidelines based method; format: functional
Candida albicans [8] = assay: Antifungal activity against fluconazole-resistant Candida albicans clinical isolate 904 assessed as inhibition of fungal growth by CLSI M27-A3 guidelines based method; format: functional
Candida tropicalis = assay: Antifungal activity against Candida tropicalis GIM 2.183 assessed as inhibition of fungal growth by CLSI M27-A3 guidelines based method; format: functional
Candida albicans [9] = assay: Effect on sterol composition in Candida albicans SC5314 assessed as eburicol content at 1 microg/ml measured after 16 hrs by GC-MS analysis relative to control; format: functional; settings: dose 1 µg/ml
Candida albicans [10] = assay: Antifungal activity against fluconazole-resistant Candida albicans clinical isolate 311 assessed as inhibition of fungal growth by CLSI M27-A3 guidelines based method; format: functional
[11] = Cytotoxicity against HUVEC cells assessed as inhibition of cell growth incubated for 72 hrs by MTT assay; format: toxicity, cell-based; settings: human
Candida albicans [12] = assay: Effect on sterol composition in Candida albicans SC5314 assessed as obtusifoliol content at 1 microg/ml measured after 16 hrs by GC-MS analysis relative to control; format: functional; settings: dose 1 µg/ml
Candida albicans [13] = assay: Effect on sterol composition in Candida albicans SC5314 assessed as 14alpha-demethyllanosterol content at 1 microg/ml measured after 16 hrs by GC-MS analysis (reference value: 1.98 %); format: functional; settings: dose 1 µg/ml
Candida albicans [14] = assay: Effect on sterol composition in Candida albicans SC5314 assessed as lanosterol content at 1 microg/ml measured after 16 hrs by GC-MS analysis relative to control; format: functional; settings: dose 1 µg/ml
Nakaseomyces glabratus = assay: Antifungal activity against Candida glabrata assessed as inhibition of fungal growth by CLSI M27-A3 guidelines based method; format: functional
[15] = Cytotoxicity against human NCI-H460 cells assessed as inhibition of cell growth incubated for 72 hrs by MTT assay; format: toxicity, cell-based
Candida parapsilosis = assay: Antifungal activity against Candida parapsilosis GIM 2.190 assessed as inhibition of fungal growth by CLSI M27-A3 guidelines based method; format: functional; settings: Lodderomyces parapsilosis
Candida albicans [16] = assay: Antifungal activity against Candida albicans SC5314 assessed as inhibition of fungal growth by CLSI M27-A3 guidelines based method; format: functional
Candida albicans [17] = assay: Fungicidal activity against Candida albicans SC5314 incubated for 48 hrs by SDA plate based method; format: functional
Candida albicans [18] = assay: Antifungal activity against fluconazole-resistant Candida albicans clinical isolate 100 assessed as inhibition of fungal growth by CLSI M27-A3 guidelines based method; format: functional
Candida albicans [19] = assay: Fungicidal activity against fluconazole and iodiconazole resistant Candida albicans clinical isolate 17# incubated for 48 hrs by SDA plate based method; format: functional
[20] = Cytotoxicity against human OVCAR-3 cells assessed as inhibition of cell growth incubated for 72 hrs by MTT assay; format: toxicity, cell-based
Candida albicans [21] = assay: Antifungal activity against fluconazole-resistant Candida albicans clinical isolate 632 assessed as inhibition of fungal growth by CLSI M27-A3 guidelines based method; format: functional
Candida albicans [22] = assay: Effect on sterol composition in Candida albicans SC5314 assessed as ergosterol content at 1 microg/ml measured after 16 hrs by GC-MS analysis (reference value: 96.96 %); format: functional; settings: dose 1 µg/ml
Candida albicans [23] = assay: Antibiofilm activity against fluconazole-resistant Candida albicans CPCC400616 assessed as inhibition of metabolic activity of biofilm measured after 6 hrs by XTT reduction assay; format: functional
Candida albicans [24] = assay: Antibiofilm activity against Candida albicans CPCC400616 assessed as inhibition of morphological transformation by measuring disappearance of mycelium at 2 microg/ml incubated for 4 hrs by microscopic photograph analysis; format: functional, organism-based; settings: dose 2.0 µg/ml
[25] = Cytotoxicity against HEK293T cells assessed as inhibition of cell growth incubated for 72 hrs by MTT assay; format: toxicity, cell-based, HEK-293T; settings: human
Candida albicans [26] = assay: Effect on sterol composition in Candida albicans SC5314 assessed as other sterols content at 1 microg/ml measured after 16 hrs by GC-MS analysis (reference value: 1.06 %); format: functional; settings: dose 1 µg/ml
Cryptococcus neoformans = assay: Antifungal activity against Cryptococcus neoformans CGMCC 2.3161 assessed as inhibition of fungal growth by CLSI M27-A3 guidelines based method; format: functional

For `OC(Cn1cncn1)(Cn1cncn1)c1ccc(F)cc1F` [FLUCONAZOLE], the MIC80 (Candida albicans [1]) was 0.5 µg/mL (≈ 1.63 µM), the MIC50 (Candida albicans [2]) was over 32 µg/mL and the MIC80 (Candida albicans [3]) was over 64 µg/mL. For the same molecule, the MIC80 (Pichia kudriavzevii) was 8 µg/mL (≈ 26.1 µM), the MIC80 (Candida albicans [4]) was over 64 µg/mL and the MIC50 (Candida albicans [5]) was over 32 µg/mL. It also gave an MIC80 (Candida albicans [6]) of over 64 µg/mL, an MIC80 (Candida albicans [7]) of over 64 µg/mL and an MIC80 (Candida albicans [8]) of over 64 µg/mL. It also gave an MIC80 (Candida tropicalis) of 0.25 µg/mL (≈ 0.816 µM), an Activity (Candida albicans [9]) of 60.09% and an MIC80 (Candida albicans [10]) of over 64 µg/mL. For the same molecule, the IC50 at 72 h [11] was over 40 µM, the Activity (Candida albicans [12]) was 14.37% and the Activity (Candida albicans [13]) was 3.03%. The Activity (Candida albicans [14]) was 9.3%, the MIC80 (Nakaseomyces glabratus) was 8 µg/mL (≈ 26.1 µM) and the IC50 at 72 h [15] was over 40 µM. It also gave an MIC80 (Candida parapsilosis) of 1 µg/mL (≈ 3.27 µM), an MIC80 (Candida albicans [16]) of 0.25 µg/mL (≈ 0.816 µM) and an MFC (Candida albicans [17]) of over 64 µg/mL. For the same molecule, the MIC80 (Candida albicans [18]) was over 64 µg/mL, the MFC (Candida albicans [19]) was over 64 µg/mL and the IC50 at 72 h [20] was over 40 µM. The MIC80 (Candida albicans [21]) was over 64 µg/mL, the Activity (Candida albicans [22]) was 4.57% and the MIC50 (Candida albicans [23]) was 16 µg/mL (≈ 52.2 µM). For the same molecule, the Activity (Candida albicans [24]) was “Not active; Oval Shaped Yeast Phase Fungi Observed”, the IC50 at 72 h [25] was over 40 µM and the Activity (Candida albicans [26]) was 8.64%. It also gave an MIC80 (Cryptococcus neoformans) of 4 µg/mL (≈ 13.1 µM).

`CN(Cc1ccc(N2CCN(Cc3cc(F)ccc3Br)CC2)cc1)CC(O)(Cn1cncn1)c1ccc(F)cc1F` (stereo unspecified) showed an MIC80 (Candida albicans [1]) of 0.025 µg/mL (≈ 0.0397 µM), an MIC80 (Candida albicans [3]) of 0.063 µg/mL (≈ 0.1 µM) and an MIC80 (Pichia kudriavzevii) of 0.1 µg/mL (≈ 0.159 µM). The MIC80 (Candida albicans [4]) was 0.25 µg/mL (≈ 0.397 µM), the MIC80 (Candida albicans [6]) was 8 µg/mL (≈ 12.7 µM) and the MIC80 (Candida albicans [7]) was over 64 µg/mL. The MIC80 (Candida albicans [8]) was 8 µg/mL (≈ 12.7 µM), the MIC80 (Candida tropicalis) was 0.006 µg/mL (≈ 0.00953 µM) and the MIC80 (Candida albicans [10]) was 32 µg/mL (≈ 50.8 µM). The MIC80 (Nakaseomyces glabratus) was 0.1 µg/mL (≈ 0.159 µM), the MIC80 (Candida parapsilosis) was 0.006 µg/mL (≈ 0.00953 µM) and the MIC80 (Candida albicans [16]) was 0.013 µg/mL (≈ 0.0207 µM). The MIC80 (Candida albicans [18]) was 2 µg/mL (≈ 3.18 µM) and the MIC80 (Candida albicans [21]) was 16 µg/mL (≈ 25.4 µM).

Molecule `CN(Cc1ccc(N2CCN(Cc3ccc(C(C)(C)C)cc3)CC2)cc1)CC(O)(Cn1cncn1)c1ccc(F)cc1F` (stereo unspecified) has an MIC80 (Candida albicans [1]) of 0.006 µg/mL (≈ 0.0102 µM), an MIC80 (Candida albicans [3]) of 0.063 µg/mL (≈ 0.107 µM) and an MIC80 (Candida albicans [4]) of 0.125 µg/mL (≈ 0.212 µM). It also gave an MIC80 (Candida albicans [6]) of 8 µg/mL (≈ 13.6 µM), an MIC80 (Candida albicans [7]) of over 64 µg/mL and an MIC80 (Candida albicans [8]) of 32 µg/mL (≈ 54.4 µM). The MIC80 (Candida tropicalis) was 0.013 µg/mL (≈ 0.0221 µM), the MIC80 (Candida albicans [10]) was 8 µg/mL (≈ 13.6 µM) and the MIC80 (Nakaseomyces glabratus) was 0.1 µg/mL (≈ 0.17 µM). It also gave an MIC80 (Candida parapsilosis) of 0.006 µg/mL (≈ 0.0102 µM), an MIC80 (Candida albicans [16]) of 0.013 µg/mL (≈ 0.0221 µM) and an MIC80 (Candida albicans [18]) of 8 µg/mL (≈ 13.6 µM). It also gave an MIC80 (Candida albicans [21]) of 16 µg/mL (≈ 27.2 µM) and an MIC80 (Cryptococcus neoformans) of 0.1 µg/mL (≈ 0.17 µM).

For `CN(Cc1ccc(N2CCN(Cc3ccc(OC(F)(F)F)cc3)CC2)cc1)CC(O)(Cn1cncn1)c1ccc(F)cc1F` (stereo unspecified), the MIC80 (Candida albicans [1]) was 0.013 µg/mL (≈ 0.0211 µM), the MIC80 (Candida albicans [3]) was 0.063 µg/mL (≈ 0.102 µM) and the MIC80 (Pichia kudriavzevii) was 0.1 µg/mL (≈ 0.162 µM). It also gave an MIC80 (Candida albicans [4]) of 0.125 µg/mL (≈ 0.203 µM), an MIC80 (Candida albicans [6]) of 32 µg/mL (≈ 51.9 µM) and an MIC80 (Candida albicans [7]) of over 64 µg/mL. It also gave an MIC80 (Candida albicans [8]) of 32 µg/mL (≈ 51.9 µM), an MIC80 (Candida tropicalis) of 0.006 µg/mL (≈ 0.00973 µM) and an MIC80 (Candida albicans [10]) of over 64 µg/mL. It also gave an MIC80 (Nakaseomyces glabratus) of 0.1 µg/mL (≈ 0.162 µM), an MIC80 (Candida parapsilosis) of 0.025 µg/mL (≈ 0.0405 µM) and an MIC80 (Candida albicans [16]) of 0.013 µg/mL (≈ 0.0211 µM). For the same molecule, the MIC80 (Candida albicans [18]) was 8 µg/mL (≈ 13 µM), the MIC80 (Candida albicans [21]) was 32 µg/mL (≈ 51.9 µM) and the MIC80 (Cryptococcus neoformans) was 0.1 µg/mL (≈ 0.162 µM).

`CN(Cc1ccc(N2CCN(Cc3ccc(Cl)cc3Br)CC2)cc1)CC(O)(Cn1cncn1)c1ccc(F)cc1F` (stereo unspecified) gave an MIC80 (Candida albicans [1]) of 0.006 µg/mL (≈ 0.00929 µM), an MIC80 (Candida albicans [3]) of 0.125 µg/mL (≈ 0.194 µM) and an MIC80 (Candida albicans [4]) of 1 µg/mL (≈ 1.55 µM). The MIC80 (Candida albicans [6]) was over 64 µg/mL, the MIC80 (Candida albicans [7]) was over 64 µg/mL and the MIC80 (Candida albicans [8]) was 32 µg/mL (≈ 49.5 µM). For the same molecule, the MIC80 (Candida tropicalis) was 0.006 µg/mL (≈ 0.00929 µM), the MIC80 (Candida albicans [10]) was over 64 µg/mL and the MIC80 (Candida parapsilosis) was 0.006 µg/mL (≈ 0.00929 µM). It also gave an MIC80 (Candida albicans [16]) of 0.006 µg/mL (≈ 0.00929 µM), an MIC80 (Candida albicans [18]) of 8 µg/mL (≈ 12.4 µM) and an MIC80 (Candida albicans [21]) of 32 µg/mL (≈ 49.5 µM).
